The record followed here is ChEMBL document CHEMBL1909046, “DrugMatrix in vitro pharmacology data”.

pIC50, pKi: −log10 of the molar value.

A short description of experiment [1]: DRUGMATRIX: Sodium/nucleoside co-transporter radioligand binding (ligand: nitrobenzylthioinosine). Type of experiment: cell membranes, Cavia porcellus, Dunkin-Hartley, Cerebral cortex, Membrane. Particulars: Not Active = under 50% inhibition at 10 µM; for pIC50: read-out: IC50; for pKi: read-out: Ki.
Experiment [2] has as its target T1, Alpha-2A adrenergic receptor (Homo sapiens, UniProt P08913). Note: in other assays of this panel Not Active means under 50% inhibition at 10 µM.
T1 sequence (P08913 whole entry): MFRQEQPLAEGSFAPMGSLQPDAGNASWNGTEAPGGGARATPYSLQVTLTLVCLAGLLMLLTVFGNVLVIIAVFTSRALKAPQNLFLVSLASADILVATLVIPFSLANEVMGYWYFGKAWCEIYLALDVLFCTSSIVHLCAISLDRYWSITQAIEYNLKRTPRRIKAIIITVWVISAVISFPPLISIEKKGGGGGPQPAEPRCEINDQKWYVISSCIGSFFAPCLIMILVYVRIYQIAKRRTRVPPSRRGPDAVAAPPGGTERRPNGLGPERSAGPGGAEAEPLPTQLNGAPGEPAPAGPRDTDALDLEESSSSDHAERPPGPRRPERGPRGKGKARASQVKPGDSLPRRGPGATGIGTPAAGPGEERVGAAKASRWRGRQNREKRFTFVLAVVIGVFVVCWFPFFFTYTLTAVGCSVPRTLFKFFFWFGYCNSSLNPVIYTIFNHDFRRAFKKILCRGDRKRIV
The format is cell membranes, Sf9, Membrane. As to conditions: for IC50: sf9.

Experiment [3] concerns the target Beta-1 adrenergic receptor (Homo sapiens, UniProt P08588). Kind of experiment: DRUGMATRIX: Adrenergic beta1 radioligand binding (ligand: [125I] Cyanopindolol). Type of experiment: cell membranes, CHO-K1, Membrane. Particulars: cho-k1; Not Active = under 50% inhibition at 10 µM.
Experiment [4] deals with Beta-2 adrenergic receptor (Homo sapiens, UniProt P07550). Nature of the experiment: DRUGMATRIX: Adrenergic beta2 radioligand binding (ligand: [3H] CGP-12177). Type of experiment: cell membranes, Membrane. As to conditions: cho; Not Active = under 50% inhibition at 10 µM.
Experiment [5] is described as follows: DRUGMATRIX: Calcium Channel Type L, Phenylalkylamine radioligand binding (ligand: [3H] (-)-Desmethoxyverapamil (D-888)). As to conditions: Not Active = under 50% inhibition at 10 µM. Type of experiment: cell membranes, Rattus norvegicus, Wistar, Brain, Membrane.
Experiment [6] concerns the target D(1A) dopamine receptor (Homo sapiens, UniProt P21728). Nature of the experiment: DRUGMATRIX: Dopamine D1 radioligand binding (ligand: [3H] SCH-23390). The format is cell membranes, CHO, Membrane. As to conditions: cho; Not Active = under 50% inhibition at 10 µM.
For experiment [7], the target named is T2, Polyunsaturated fatty acid lipoxygenase ALOX15 (Oryctolagus cuniculus, UniProt P12530).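 Note: inhibition of 15-lipoxygenase enzyme activity measured with linoleic acid as the substrate; in other assays of this panel Not Active means under 50% inhibition at 10 µM.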
T2 sequence (P12530 whole entry): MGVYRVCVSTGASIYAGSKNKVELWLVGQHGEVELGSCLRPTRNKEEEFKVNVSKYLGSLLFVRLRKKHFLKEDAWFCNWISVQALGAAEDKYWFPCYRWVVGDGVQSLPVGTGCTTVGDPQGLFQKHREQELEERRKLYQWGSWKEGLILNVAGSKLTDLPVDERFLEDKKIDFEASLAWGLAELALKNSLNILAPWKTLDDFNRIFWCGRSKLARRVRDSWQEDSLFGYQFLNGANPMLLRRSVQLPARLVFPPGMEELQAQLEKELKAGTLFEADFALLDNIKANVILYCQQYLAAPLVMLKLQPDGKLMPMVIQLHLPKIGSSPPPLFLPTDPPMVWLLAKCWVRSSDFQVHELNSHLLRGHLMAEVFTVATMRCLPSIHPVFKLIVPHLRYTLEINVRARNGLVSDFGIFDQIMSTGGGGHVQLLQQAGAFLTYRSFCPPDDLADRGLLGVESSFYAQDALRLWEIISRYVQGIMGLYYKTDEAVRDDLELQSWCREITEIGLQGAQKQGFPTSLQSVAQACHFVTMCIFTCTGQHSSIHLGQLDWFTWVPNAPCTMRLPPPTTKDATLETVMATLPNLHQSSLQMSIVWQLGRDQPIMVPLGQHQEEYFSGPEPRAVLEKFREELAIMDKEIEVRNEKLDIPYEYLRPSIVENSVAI
Kind of experiment: biochemical. Particulars: for IC50: reticulocytes; for pIC50: read-out: IC50. The format is tissue-based, Reticulocytes.

In experiment [8] the target is T3, Muscarinic acetylcholine receptor M4 (Homo sapiens, UniProt P08173). Note: in other assays of this panel Not Active means under 50% inhibition at 10 µM.
T3 sequence (P08173 whole entry): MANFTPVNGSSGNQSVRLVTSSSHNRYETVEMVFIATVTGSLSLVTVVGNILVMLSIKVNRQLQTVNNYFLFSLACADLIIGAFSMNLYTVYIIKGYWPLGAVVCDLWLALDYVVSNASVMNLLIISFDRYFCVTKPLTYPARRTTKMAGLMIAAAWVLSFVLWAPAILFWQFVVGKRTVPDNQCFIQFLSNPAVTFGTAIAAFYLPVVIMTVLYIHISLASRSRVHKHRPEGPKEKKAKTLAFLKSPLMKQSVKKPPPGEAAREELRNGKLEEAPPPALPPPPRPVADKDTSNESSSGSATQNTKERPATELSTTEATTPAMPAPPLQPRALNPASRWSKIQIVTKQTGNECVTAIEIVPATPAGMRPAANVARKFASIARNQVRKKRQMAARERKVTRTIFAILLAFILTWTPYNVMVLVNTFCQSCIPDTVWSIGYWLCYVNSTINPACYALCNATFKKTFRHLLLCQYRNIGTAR
The format is cell membranes, CHO-K1, Membrane. Particulars: for IC50: cho-k1.

Experiment [9] deals with Kappa-type opioid receptor (Homo sapiens, UniProt P41145). Kind of experiment: DRUGMATRIX: Opiate kappa (OP2, KOP) radioligand binding (ligand: [3H] Diprenorphine). Type of experiment: cell membranes, HEK293, Membrane. Particulars: hek293; Not Active = under 50% inhibition at 10 µM.
The target of experiment [10] is cGMP-specific 3',5'-cyclic phosphodiesterase (Homo sapiens, UniProt O76074). Nature of the experiment: DRUGMATRIX: Phosphodiesterase PDE5 enzyme inhibition (substrate: [3H]cGMP + cGMP). Type of experiment: tissue-based, Platelet. Particulars: platelet; Not Active = under 50% inhibition at 10 µM.
In experiment [11] the target is T4, Neutrophil elastase (Homo sapiens, UniProt P08246).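 Note: inhibition of neutrophil elastase enzyme activity, measured with a p-nitroanilide-linked peptide substrate; in other assays of this panel Not Active means under 50% inhibition at 10 µM.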
T4 sequence (P08246 whole entry): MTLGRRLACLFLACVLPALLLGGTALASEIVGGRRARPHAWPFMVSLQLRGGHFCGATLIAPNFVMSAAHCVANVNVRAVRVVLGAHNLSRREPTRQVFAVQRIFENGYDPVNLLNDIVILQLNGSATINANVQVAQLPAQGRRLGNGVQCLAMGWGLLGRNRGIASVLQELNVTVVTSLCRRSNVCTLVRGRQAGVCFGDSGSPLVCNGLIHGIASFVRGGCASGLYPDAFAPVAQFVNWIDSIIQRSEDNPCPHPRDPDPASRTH
Type of experiment: tissue-based.

In experiment [12] the target is Adenosine receptor A2a (Homo sapiens, UniProt P29274). Kind of experiment: DRUGMATRIX: Adenosine A2A radioligand binding (ligand: […]). Type of experiment: cell membranes, HEK293, Membrane. Particulars: hek293; Not Active = under 50% inhibition at 10 µM.
Sequence of Adenosine receptor A2a (P29274 whole entry): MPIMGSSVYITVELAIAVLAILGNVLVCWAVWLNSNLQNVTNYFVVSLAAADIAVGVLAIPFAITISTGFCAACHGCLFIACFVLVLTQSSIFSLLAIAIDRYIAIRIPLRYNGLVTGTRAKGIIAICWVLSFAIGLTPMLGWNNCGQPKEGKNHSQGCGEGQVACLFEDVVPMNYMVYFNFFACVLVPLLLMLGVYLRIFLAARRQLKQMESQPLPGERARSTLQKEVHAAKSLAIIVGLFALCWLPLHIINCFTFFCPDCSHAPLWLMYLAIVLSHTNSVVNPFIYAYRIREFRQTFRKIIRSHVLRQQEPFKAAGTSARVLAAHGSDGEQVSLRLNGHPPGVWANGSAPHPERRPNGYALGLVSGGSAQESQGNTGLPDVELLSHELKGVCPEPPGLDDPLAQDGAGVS

Sequence of Beta-1 adrenergic receptor (P08588 whole entry): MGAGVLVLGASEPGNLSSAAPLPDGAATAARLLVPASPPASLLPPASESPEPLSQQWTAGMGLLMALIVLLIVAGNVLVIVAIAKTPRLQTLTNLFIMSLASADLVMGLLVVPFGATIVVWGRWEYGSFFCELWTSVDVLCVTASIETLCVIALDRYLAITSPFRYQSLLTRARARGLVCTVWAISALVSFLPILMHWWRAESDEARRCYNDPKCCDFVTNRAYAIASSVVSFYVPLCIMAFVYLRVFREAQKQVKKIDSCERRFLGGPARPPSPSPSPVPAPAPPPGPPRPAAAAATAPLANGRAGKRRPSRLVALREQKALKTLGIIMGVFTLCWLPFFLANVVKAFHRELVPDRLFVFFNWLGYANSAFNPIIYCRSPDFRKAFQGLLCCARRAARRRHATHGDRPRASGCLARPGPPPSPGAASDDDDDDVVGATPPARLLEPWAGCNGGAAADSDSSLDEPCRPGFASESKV
Sequence of D(1A) dopamine receptor (P21728 whole entry): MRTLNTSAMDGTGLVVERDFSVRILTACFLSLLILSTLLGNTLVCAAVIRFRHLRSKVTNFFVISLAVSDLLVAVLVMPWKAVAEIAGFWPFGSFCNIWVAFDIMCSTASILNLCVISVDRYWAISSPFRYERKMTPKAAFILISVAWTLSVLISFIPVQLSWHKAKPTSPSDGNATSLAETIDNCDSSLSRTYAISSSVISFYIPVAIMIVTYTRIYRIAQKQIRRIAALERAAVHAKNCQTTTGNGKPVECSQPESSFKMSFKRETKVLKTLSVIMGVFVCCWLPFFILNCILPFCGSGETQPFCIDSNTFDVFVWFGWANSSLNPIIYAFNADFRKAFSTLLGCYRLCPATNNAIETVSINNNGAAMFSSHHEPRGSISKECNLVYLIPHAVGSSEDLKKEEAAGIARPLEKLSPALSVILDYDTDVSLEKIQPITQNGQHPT
Sequence of Kappa-type opioid receptor (P41145 whole entry): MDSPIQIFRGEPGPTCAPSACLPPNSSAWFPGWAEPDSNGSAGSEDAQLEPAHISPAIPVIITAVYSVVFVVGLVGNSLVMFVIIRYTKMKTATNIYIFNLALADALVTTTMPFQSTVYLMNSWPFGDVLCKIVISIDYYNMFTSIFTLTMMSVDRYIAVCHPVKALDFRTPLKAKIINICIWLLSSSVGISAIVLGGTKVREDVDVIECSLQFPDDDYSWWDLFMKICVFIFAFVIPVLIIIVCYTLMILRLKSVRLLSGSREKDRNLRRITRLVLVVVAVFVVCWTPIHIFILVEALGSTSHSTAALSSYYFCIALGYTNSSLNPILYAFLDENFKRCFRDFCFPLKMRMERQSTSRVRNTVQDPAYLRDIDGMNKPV
Sequence of Beta-2 adrenergic receptor (P07550 whole entry): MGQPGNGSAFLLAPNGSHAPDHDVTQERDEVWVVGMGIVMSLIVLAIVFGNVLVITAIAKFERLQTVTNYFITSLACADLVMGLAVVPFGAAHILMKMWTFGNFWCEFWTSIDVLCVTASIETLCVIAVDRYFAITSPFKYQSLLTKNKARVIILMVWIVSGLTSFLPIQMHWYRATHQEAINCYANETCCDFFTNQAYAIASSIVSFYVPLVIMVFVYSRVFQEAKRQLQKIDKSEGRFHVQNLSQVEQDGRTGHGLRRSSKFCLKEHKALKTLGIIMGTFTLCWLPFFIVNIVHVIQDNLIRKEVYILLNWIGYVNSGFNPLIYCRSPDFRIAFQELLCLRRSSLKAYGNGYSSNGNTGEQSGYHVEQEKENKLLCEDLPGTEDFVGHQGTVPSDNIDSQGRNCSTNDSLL

`COS(C)(=O)=O` [METHANESULFONIC ACID METHYL ESTER]: the IC50 entry in experiment [1], in experiment [2], in [3], in experiment [4], in experiment [5] and in [6] was “Not Active” throughout. Also, the IC50 entry in experiment [7], in [8], in experiment [9], in experiment [10], in experiment [11] and in experiment [12] was “Not Active” throughout. Besides, the Ki entry in experiment [1] and in [5] was “Not Active” in each case.
Take `COC(=O)c1ccc(O)cc1` [METHYLPARABEN]: the IC50 result in experiment [1], in [2], in experiment [3], in experiment [4], in experiment [5] and in experiment [6] was “Not Active” each time. In addition, the IC50 entry in [7], in [8], in experiment [9], in [10], in [11] and in experiment [12] was “Not Active” in each case. In addition, the Ki result in [1] and in experiment [5] was “Not Active” each time.
Take `C[C@](N)(Cc1ccc(O)cc1)C(=O)O` [METYROSINE]: the IC50 entry in [1], in experiment [2], in [3], in experiment [4], in [5] and in experiment [6] was “Not Active” each time. Moreover, the IC50 result in experiment [7], in experiment [8], in experiment [9], in [10], in [11] and in [12] was “Not Active” in each case. Further, the Ki result in experiment [1] and in [5] was “Not Active” in each case.
Turning to `Clc1ccc(C(c2ccccc2Cl)C(Cl)Cl)cc1` (centres undefined) [MITOTANE], the IC50 result in experiment [1], in experiment [3], in [4], in experiment [5], in experiment [6] and in experiment [7] was “Not Active” throughout. The IC50 entry in experiment [8], in experiment [9], in experiment [10], in experiment [11] and in [12] was “Not Active” in each case. Besides, the Ki result in [1] and in experiment [5] was “Not Active” each time. In experiment [2] (read-out: IC50), the pIC50 (commonly the negative decadic logarithm of the IC50, by convention in mol/L) was 5.13. Further, the pKi (as a rule, the negative decadic logarithm of the Ki, by convention in mol/L) in experiment [2] (read-out: Ki) was 5.56.
For the compound `O=C1c2c(O)ccc(O)c2C(=O)c2c(NCCNCCO)ccc(NCCNCCO)c21` [MITOXANTRONE], the IC50 result in experiment [1], in experiment [2], in experiment [3], in experiment [4], in experiment [5] and in [6] was “Not Active” throughout. The IC50 result in experiment [9], in experiment [10], in experiment [11] and in experiment [12] was “Not Active” in each case. Moreover, the Ki result in experiment [1] and in experiment [5] was “Not Active” each time. The pIC50 in [7] was 5.75; in experiment [8] (read-out: IC50), 6.19. Also, in [8] (read-out: Ki), the pKi is 7.05.
In the case of `COc1c(C)c2c(c(O)c1C/C=C(\C)CCC(=O)OCCN1CCOCC1)C(=O)OC2` [MYCOPHENOLATE MOFETIL], the IC50 result in experiment [1], in [2], in [3], in experiment [4], in experiment [5] and in [6] was “Not Active” each time. Also, the IC50 entry in [7], in experiment [8], in experiment [9], in experiment [10], in [11] and in [12] was “Not Active” each time. Further, the Ki result in [1] and in [5] was “Not Active” in each case.
With `COC(=O)C1=C(C)NC(C)=C(C(=O)OC)C1c1ccccc1[N+](=O)[O-]` [NIFEDIPINE], the pIC50 is 4.62 in [1], 6.06 in [5] (read-out: IC50) and 4.82 in [7]. In addition, the pKi in experiment [1] was 5.09; in experiment [5] (read-out: Ki), 6.07. Further, the IC50 result in [2], in [3], in experiment [4], in experiment [6], in experiment [8] and in experiment [9] was “Not Active” in each case. For the same compound, the IC50 result in experiment [10], in [11] and in experiment [12] was “Not Active” in each case.
Consider `CC(=O)[C@H]1CC[C@H]2[C@@H]3CCC4=CC(=O)CC[C@]4(C)[C@H]3CC[C@]12C` [PROGESTERONE], for which the negative-log IC50 (pIC50) in experiment [1] was 4.71. Further, the pKi in [1] was 5.17. The IC50 entry in [2], in experiment [3], in experiment [4], in experiment [5], in [6] and in [7] was “Not Active” in each case. The IC50 result in experiment [8], in [9], in [10], in experiment [11] and in [12] was “Not Active” throughout. In addition, the Ki result in [5] is “Not Active”.
